Test results as given in publication PMC8115619, “Generation of a chemical genetic model for JAK3” (Scientific Reports, 2021).

How the values were obtained:
[1] = test system: IFNβ induced STAT1 phosphorylation in BMDMs; experiment: IFNβ induced STAT1 phosphorylation in macrophages; assay type: cell-based, mouse; conditions: wild type BMDMs, 10 μM inhibitor 2 h, 10 ng/ml IFNβ
Experimental: (A) BMDMs were isolated from wild type mice. Cells were incubated with the indicated inhibitors in μM for 2 h before stimulation with 10 ng/ml IL-4 for 30 min. The levels of phosphorylated STAT6 were then determined by immunoblotting. (B) As (A) except cells were stimulated 10 ng/ml GM-CSF and the levels of phosphorylated STAT5 determined. (C) As (A) except cells were stimulated 10 ng/ml IL-10 and the levels of phosphorylated STAT3 determined. (D) As (A) except cells were stimulated 10 ng/ml IFNβ and the levels of phosphorylated STAT1 determined. For A–D, levels of ERK1/2 were determined as a loading control.
Bone marrow derived macrophages (BMDMs) were cultured as described. Briefly, bone marrow was flushed in PBS from the femurs and tibias of mice. […]
Cells were lysed directly into SDS sample buffer and aliquots run on 10% polyacrylamide gels using standard methods. Proteins were transferred onto nitrocellulose membranes, and specific proteins were detected by immunoblotting. […] Bands were detected using Clarity ECL reagents from BioRad and imaged on a Licor Odyssey Fc system. Quantification was carried out using Licor Image Studio software. After correction for the ERK1/2 levels to account for loading differences, percentage inhibition was calculated relative to the IL-4 stimulated condition. IC50 values were calculated using the same methods as for the in vitro IC50 values.

[2] = biological target: GSK3b (Homo sapiens, UniProt P49841); experiment: Selectivity screen GSK3b; assay type: biochemical; conditions: 1 µM inhibitor, mean
Experimental: (§1) For the in vitro kinase assay, JAK3 (5–20 mU diluted in 50 mM Tris pH 7.5, 0.1 mM EGTA, 0.05% β-mercaptoethanol, 1 mg/ml BSA) was assayed against PDKtide ([…]) in a final volume of 25.5 µl containing 50 mM Tris pH 7.5, 0.1 mM EGTA, 0.05% β-mercaptoethanol, 100 µM substrate peptide, 10 mM magnesium acetate and 0.02 mM [33P-γ-ATP] (50–1000 cpm/pmole) and incubated for 30 min at room temperature. Assays were started by the addition of the ATP and stopped by addition of 5 µl of 0.5 M (3%) orthophosphoric acid and then harvested onto P81 Unifilter plates with a wash buffer of 50 mM orthophosphoric acid. To determine the Km for ATP, assays were run using 1, 5, 10, 20, 50, 100, 200, 400, 500 μM ATP and Km derived by non-linear regression fitting to the Michaelis–Menten equation v = Vmax[S]/(Km + [S]). IC50 values for inhibitors via non-linear regression using a parameter model: Y = Bottom + (Top–Bottom)/(1 + (IC50/X)^HillSlope). Non-linear regression was carried out in Prism (version 8). In vitro selectivity screen was carried out as described previously.

[3] = biological target: ERK2 (Homo sapiens, UniProt P28482); experiment: Selectivity screen ERK2; assay type: biochemical; conditions: 1 µM inhibitor, mean
Experimental: as §1

[4] = biological target: MST2 (Homo sapiens, UniProt Q13188); experiment: Selectivity screen MST2; assay type: biochemical; conditions: 1 µM inhibitor, mean
Experimental: as §1

[5] = biological target: PIM1 (Homo sapiens, UniProt P11309); experiment: Selectivity screen PIM1; assay type: biochemical; conditions: 1 µM inhibitor, mean
Experimental: as §1

[6] = biological target: EPH-B3 (Homo sapiens, UniProt P54753); experiment: Selectivity screen EPH-B3; assay type: biochemical; conditions: 1 µM inhibitor, mean
Experimental: as §1

[7] = test system: AMPK; experiment: Selectivity screen AMPK; assay type: biochemical; conditions: 1 µM inhibitor, mean
[8] = biological target: ROCK 2 (Homo sapiens, UniProt O75116); experiment: Selectivity screen ROCK 2; assay type: biochemical; conditions: 1 µM inhibitor, mean
Experimental: as §1

[9] = biological target: MAPKAP-K3 (Homo sapiens, UniProt Q16644); experiment: Selectivity screen MAPKAP-K3; assay type: biochemical; conditions: 1 µM inhibitor, mean
Experimental: as §1

[10] = biological target: MST3 (Homo sapiens, UniProt Q9Y6E0); experiment: Selectivity screen MST3; assay type: biochemical; conditions: 1 µM inhibitor, mean
Experimental: as §1

[11] = biological target: PAK4 (Homo sapiens, UniProt O96013); experiment: Selectivity screen PAK4; assay type: biochemical; conditions: 1 µM inhibitor, mean
Experimental: as §1

[12] = biological target: PLK1 (Homo sapiens, UniProt P53350); experiment: Selectivity screen PLK1; assay type: biochemical; conditions: 1 µM inhibitor, mean
Experimental: as §1

[13] = biological target: BRSK2 (Homo sapiens, UniProt Q8IWQ3); experiment: Selectivity screen BRSK2; assay type: biochemical; conditions: 1 µM inhibitor, mean
Experimental: as §1

[14] = biological target: Lck (Homo sapiens, UniProt P06239); experiment: Selectivity screen Lck; assay type: biochemical; conditions: 1 µM inhibitor, mean
Experimental: as §1

[15] = biological target: HER4 (Homo sapiens, UniProt Q15303); experiment: Selectivity screen HER4; assay type: biochemical; conditions: 1 µM inhibitor, mean
Experimental: as §1

[16] = biological target: CDK9-Cyclin T1 (Homo sapiens, UniProt P50750); experiment: Selectivity screen CDK9-Cyclin T1; assay type: biochemical; conditions: 1 µM inhibitor, mean
Experimental: as §1

[17] = biological target: MNK2 (Homo sapiens, UniProt Q9HBH9); experiment: Selectivity screen MNK2; assay type: biochemical; conditions: 1 µM inhibitor, mean
Experimental: as §1

[18] = biological target: EPH-B2 (Homo sapiens, UniProt P29323); experiment: Selectivity screen EPH-B2; assay type: biochemical; conditions: 1 µM inhibitor, mean
Experimental: as §1

[19] = biological target: ULK2 (Homo sapiens, UniProt Q8IYT8); experiment: Selectivity screen ULK2; assay type: biochemical; conditions: 1 µM inhibitor, mean
Experimental: as §1

MST3, sequence (Q9Y6E0 whole entry): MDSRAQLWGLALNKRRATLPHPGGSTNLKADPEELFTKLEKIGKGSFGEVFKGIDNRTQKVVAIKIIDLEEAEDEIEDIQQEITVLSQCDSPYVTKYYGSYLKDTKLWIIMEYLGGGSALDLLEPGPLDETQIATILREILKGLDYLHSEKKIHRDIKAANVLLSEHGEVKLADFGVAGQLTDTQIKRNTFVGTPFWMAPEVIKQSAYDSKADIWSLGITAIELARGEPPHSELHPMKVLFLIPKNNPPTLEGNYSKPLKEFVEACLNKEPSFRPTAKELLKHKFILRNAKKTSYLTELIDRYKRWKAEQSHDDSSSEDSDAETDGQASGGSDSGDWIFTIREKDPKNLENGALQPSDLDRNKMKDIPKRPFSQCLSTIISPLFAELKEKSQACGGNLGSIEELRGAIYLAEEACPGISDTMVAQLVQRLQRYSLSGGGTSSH
CDK9-Cyclin T1, sequence (P50750 whole entry): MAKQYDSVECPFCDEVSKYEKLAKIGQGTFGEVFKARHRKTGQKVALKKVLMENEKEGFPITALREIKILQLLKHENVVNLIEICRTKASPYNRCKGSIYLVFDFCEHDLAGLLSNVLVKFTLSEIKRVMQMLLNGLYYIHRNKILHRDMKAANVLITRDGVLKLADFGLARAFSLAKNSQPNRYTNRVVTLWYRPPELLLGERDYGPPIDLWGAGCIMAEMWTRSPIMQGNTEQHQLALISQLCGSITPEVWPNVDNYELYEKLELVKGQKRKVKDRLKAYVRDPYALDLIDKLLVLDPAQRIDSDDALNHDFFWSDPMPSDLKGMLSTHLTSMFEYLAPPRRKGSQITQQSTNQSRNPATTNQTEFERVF
CDK9-Cyclin T1, sequence (O60563 whole entry partner): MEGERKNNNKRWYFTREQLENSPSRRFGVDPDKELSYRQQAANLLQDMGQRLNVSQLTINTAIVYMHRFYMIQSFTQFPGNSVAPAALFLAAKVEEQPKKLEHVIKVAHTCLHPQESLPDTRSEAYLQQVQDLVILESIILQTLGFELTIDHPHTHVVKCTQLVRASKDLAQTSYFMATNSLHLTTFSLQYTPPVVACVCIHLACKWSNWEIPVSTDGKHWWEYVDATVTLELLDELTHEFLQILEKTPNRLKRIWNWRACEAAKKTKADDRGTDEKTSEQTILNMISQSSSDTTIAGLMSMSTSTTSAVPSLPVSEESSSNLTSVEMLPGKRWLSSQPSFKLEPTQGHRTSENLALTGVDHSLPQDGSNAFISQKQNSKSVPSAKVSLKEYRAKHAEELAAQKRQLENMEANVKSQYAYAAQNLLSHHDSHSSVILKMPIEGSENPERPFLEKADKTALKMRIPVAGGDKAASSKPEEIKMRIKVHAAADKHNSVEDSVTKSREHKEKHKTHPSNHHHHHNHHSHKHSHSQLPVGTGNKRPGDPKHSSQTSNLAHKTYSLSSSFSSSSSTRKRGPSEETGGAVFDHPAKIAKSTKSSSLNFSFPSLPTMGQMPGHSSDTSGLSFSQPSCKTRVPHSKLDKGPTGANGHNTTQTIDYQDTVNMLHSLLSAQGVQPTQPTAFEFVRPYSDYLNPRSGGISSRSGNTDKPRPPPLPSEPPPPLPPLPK
EPH-B3, sequence (P54753 34-998): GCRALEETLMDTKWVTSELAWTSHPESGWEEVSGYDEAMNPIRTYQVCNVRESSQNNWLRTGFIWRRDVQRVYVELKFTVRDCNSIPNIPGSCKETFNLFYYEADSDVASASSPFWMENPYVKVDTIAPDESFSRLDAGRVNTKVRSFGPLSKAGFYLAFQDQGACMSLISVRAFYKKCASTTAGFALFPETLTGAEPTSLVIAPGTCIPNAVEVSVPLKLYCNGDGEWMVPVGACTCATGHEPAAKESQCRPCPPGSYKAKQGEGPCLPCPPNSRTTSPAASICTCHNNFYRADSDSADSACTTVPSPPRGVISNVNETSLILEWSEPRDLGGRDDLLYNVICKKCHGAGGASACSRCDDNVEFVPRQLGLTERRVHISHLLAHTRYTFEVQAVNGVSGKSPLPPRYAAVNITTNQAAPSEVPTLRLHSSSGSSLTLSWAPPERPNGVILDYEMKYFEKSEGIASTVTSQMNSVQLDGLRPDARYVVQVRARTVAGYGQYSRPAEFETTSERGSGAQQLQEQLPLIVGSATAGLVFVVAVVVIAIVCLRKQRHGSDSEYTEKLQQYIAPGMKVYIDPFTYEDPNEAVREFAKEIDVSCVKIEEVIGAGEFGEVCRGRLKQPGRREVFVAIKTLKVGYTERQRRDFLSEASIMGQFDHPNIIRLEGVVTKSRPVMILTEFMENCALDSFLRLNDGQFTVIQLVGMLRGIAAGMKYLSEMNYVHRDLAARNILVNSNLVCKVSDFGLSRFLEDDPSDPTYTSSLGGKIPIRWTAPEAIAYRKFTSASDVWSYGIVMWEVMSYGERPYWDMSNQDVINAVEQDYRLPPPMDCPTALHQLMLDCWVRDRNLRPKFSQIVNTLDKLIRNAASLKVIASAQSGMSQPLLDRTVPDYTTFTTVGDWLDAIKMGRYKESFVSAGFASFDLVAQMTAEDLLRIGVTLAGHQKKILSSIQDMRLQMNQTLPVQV
PIM1, sequence (P11309 whole entry): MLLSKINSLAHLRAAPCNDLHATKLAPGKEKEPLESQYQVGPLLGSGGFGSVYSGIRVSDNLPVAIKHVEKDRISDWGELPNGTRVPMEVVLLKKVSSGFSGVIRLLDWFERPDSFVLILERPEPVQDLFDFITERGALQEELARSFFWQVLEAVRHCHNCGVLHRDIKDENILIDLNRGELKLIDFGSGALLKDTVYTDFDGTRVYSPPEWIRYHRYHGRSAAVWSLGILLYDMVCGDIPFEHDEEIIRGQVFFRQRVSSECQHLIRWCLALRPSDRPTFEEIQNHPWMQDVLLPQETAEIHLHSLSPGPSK
EPH-B2, sequence (P29323 19-1055): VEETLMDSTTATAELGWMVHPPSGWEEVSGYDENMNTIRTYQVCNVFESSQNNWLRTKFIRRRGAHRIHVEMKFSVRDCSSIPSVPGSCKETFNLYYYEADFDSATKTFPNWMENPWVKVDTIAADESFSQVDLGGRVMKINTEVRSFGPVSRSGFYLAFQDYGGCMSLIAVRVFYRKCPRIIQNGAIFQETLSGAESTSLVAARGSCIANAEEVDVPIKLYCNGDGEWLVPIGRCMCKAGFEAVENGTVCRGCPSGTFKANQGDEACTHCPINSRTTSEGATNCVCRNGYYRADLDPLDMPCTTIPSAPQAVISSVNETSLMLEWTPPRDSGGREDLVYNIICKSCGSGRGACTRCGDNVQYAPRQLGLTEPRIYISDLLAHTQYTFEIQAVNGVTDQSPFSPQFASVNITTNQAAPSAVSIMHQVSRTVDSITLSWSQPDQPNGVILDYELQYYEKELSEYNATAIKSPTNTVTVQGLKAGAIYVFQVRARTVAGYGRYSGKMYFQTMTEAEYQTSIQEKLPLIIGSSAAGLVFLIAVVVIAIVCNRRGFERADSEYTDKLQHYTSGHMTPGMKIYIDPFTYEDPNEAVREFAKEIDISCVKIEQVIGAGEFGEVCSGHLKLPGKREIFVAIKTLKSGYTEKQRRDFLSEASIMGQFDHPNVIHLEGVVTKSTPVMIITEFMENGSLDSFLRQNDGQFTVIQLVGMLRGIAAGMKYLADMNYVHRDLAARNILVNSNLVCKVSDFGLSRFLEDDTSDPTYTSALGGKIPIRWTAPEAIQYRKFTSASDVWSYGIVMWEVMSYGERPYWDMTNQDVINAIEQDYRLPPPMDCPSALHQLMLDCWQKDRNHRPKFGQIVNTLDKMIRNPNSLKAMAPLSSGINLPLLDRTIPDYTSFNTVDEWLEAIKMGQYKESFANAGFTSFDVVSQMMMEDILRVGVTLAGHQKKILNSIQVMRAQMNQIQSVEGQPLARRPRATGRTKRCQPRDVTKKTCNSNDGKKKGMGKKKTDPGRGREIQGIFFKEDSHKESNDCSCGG
PLK1, sequence (P53350 whole entry): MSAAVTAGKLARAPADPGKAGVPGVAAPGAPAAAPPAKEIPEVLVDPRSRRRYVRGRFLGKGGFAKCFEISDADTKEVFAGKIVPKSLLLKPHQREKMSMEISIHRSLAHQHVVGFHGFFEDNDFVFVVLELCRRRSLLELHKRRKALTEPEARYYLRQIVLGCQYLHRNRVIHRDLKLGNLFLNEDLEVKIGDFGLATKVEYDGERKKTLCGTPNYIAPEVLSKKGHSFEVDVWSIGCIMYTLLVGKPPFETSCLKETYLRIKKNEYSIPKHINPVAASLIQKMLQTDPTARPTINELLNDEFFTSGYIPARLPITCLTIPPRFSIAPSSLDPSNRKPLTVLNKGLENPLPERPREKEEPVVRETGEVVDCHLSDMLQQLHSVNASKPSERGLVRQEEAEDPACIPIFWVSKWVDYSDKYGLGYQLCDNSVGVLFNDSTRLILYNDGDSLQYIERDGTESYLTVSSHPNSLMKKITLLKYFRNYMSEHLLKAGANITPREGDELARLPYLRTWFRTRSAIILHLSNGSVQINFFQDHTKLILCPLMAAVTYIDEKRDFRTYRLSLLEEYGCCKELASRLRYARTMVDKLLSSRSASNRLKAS
MAPKAP-K3, sequence (Q16644 whole entry): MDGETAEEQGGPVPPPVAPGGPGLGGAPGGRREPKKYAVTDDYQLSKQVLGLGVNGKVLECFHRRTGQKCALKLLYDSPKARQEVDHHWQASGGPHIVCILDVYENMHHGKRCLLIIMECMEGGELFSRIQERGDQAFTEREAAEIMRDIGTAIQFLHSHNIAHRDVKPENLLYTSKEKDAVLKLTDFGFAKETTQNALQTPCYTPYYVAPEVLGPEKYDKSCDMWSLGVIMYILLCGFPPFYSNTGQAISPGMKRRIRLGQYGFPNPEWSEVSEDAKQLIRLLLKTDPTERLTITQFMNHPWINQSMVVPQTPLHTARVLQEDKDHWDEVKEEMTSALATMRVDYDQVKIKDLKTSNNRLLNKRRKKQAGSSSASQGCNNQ

| SMILES | inhibition of IFNβ induced STAT1 phosphorylation [1] | activity remaining in the presence of the inhibitor: GSK3b [2] | activity remaining in the presence of the inhibitor: ERK2 [3] | activity remaining in the presence of the inhibitor: MST2 [4] | activity remaining in the presence of the inhibitor: PIM1 [5] | activity remaining in the presence of the inhibitor: EPH-B3 [6] | activity remaining in the presence of the inhibitor: AMPK [7] | activity remaining in the presence of the inhibitor: ROCK 2 [8] | activity remaining in the presence of the inhibitor: MAPKAP-K3 [9] | activity remaining in the presence of the inhibitor: MST3 [10] | activity remaining in the presence of the inhibitor: PAK4 [11] | activity remaining in the presence of the inhibitor: PLK1 [12] | activity remaining in the presence of the inhibitor: BRSK2 [13] | activity remaining in the presence of the inhibitor: Lck [14] | activity remaining in the presence of the inhibitor: HER4 [15] | activity remaining in the presence of the inhibitor: CDK9-Cyclin T1 [16] | activity remaining in the presence of the inhibitor: MNK2 [17] | activity remaining in the presence of the inhibitor: EPH-B2 [18] | activity remaining in the presence of the inhibitor: ULK2 [19] |
| --- | --- | --- | --- | --- | --- | --- | --- | --- | --- | --- | --- | --- | --- | --- | --- | --- | --- | --- | --- |
| C=CC(=O)N1C[C@H](Nc2ncnc3[nH]ccc23)CC[C@@H]1C [PF-06651600, 1-((2S,5R)-5-((7H-Pyrrolo[2,3-d]pyrimidin-4-yl)amino)-2-methylpiperidin-1-yl)prop-2-en-1-one, reference compound] | did not block | – | – | – | – | – | – | – | – | – | – | – | – | – | – | – | – | – | – |
| C=CC(=O)Nc1cccc(CNc2nc(Nc3ccc(N4CCN(C)CC4)cc3OC)ncc2Cl)c1 [TL6-144] | – | 87 | 106 | 83 | 95 | 77 | 91 | 83 | 119 | 99 | 99 | 107 | 90 | 77 | 9 | 95 | 70 | 96 | 63 |
| C=CC(=O)Nc1cccc(CNc2nc(Nc3ccc(N4CCOCC4)cc3)ncc2Cl)c1 [TL8-52] | Some inhibition | 118 | 97 | 48 | 111 | 73 | 80 | 93 | 62 | 97 | 85 | 114 | 87 | 73 | 31 | 80 | 66 | 81 | 92 |
